Laboratory results taken from patent US20070004660A1, “Synergistic Modulation of Flt3 Kinase Using Alkylquinolines and Alkylquinazolines” (priority 2005, published 2007).

What follows are compounds tested against T1, wild-type FLT3 receptor (Homo sapiens, UniProt P36888) (assay: Cell-based FLT3 receptor ELISA (FLT ligand-induced phosphorylation in Baf3 FLT3 cells)). Conditions: 100 ng/mL Flt ligand, uncertainty ±20%.
T1 construct: host or cells: Baf3 (murine B cell lymphoma line), stably transfected
T1 sequence (P36888 27-993): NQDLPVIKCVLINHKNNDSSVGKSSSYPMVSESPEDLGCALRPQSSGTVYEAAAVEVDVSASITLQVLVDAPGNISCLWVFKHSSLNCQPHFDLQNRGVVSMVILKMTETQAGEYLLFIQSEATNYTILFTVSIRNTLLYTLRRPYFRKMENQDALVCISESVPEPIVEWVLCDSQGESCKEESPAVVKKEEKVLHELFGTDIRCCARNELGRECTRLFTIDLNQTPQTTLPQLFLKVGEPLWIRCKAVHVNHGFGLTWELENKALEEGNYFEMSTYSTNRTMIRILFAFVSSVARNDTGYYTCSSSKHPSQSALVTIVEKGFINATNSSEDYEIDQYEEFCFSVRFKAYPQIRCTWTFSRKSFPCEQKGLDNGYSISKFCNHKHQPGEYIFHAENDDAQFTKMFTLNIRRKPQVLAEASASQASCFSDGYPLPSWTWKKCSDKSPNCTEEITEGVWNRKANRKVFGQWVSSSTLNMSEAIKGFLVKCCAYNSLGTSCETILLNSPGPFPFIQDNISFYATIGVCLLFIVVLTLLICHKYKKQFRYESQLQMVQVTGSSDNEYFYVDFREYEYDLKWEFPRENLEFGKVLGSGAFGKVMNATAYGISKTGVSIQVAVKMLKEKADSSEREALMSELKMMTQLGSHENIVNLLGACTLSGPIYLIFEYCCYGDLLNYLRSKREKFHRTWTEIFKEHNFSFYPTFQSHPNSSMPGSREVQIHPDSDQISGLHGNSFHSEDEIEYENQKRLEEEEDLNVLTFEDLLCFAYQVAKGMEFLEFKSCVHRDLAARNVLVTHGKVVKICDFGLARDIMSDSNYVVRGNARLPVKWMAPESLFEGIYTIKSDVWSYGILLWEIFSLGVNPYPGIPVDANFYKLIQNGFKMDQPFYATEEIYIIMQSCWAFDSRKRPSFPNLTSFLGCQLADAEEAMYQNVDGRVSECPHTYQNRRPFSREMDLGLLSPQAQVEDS
Outline: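 Receptor phosphotyrosine measured by sandwich ELISA (anti-FLT3 capture, HRP anti-pTyr, luminescence) in FLT3-transfected murine Baf3 cells given 1 h compound pretreatment and 10 min 100 ng/mL FLT ligand after overnight low-serum starvation; triplicates, IC50 from nonlinear regression.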

SMILES	IC50
CN1CCN(c2ccc3c(C4CCN(C(=O)Nc5ccc(N6CCCC6)nc5)CC4)ncnc3c2)CC1 [Example 160, 4-[7-(4-Methyl-piperazin-1-yl)-quinazolin-4-yl]-piperidine-1-carboxylic acid (6-pyrrolidin-1-yl-pyridin-3-yl)-amide]	11 nM
O=C(Nc1ccc(N2CCCC2)cc1)N1CCC(c2ncnc3cc(OCCCN4CCC[C@H]4CO)ccc23)CC1 [Example 161, (S)-4-{7-[3-(2-Hydroxymethyl-pyrrolidin-1-yl)-propoxy]-quinazolin-4-yl}-piperidine-1-carboxylic acid (4-pyrrolidin-1-yl-phenyl)-amide]	59 nM
CC(=O)N1CCC[C@H]1COc1ccc2c(C3CCN(C(=O)Nc4ccc(N5CCCC5)cc4)CC3)ncnc2c1 [Example 162, (S)-4-[7-(1-Acetyl-pyrrolidin-2-ylmethoxy)-quinazolin-4-yl]-piperidine-1-carboxylic acid (4-pyrrolidin-1-yl-phenyl)-amide]	10 nM
CC(=O)N1CCC(COc2ccc3c(C4CCN(C(=O)Nc5ccc(N6CCCC6)cc5)CC4)ncnc3c2)CC1 [Example 163, 4-[7-(1-Acetyl-piperidin-4-ylmethoxy)-quinazolin-4-yl]-piperidine-1-carboxylic acid (4-pyrrolidin-1-yl-phenyl)-amide]	118 nM
CS(=O)(=O)N1CCN(CCCOc2ccc3c(C4CCN(C(=O)Nc5ccc(N6CCCC6)cc5)CC4)ncnc3c2)CC1 [Example 164, 4-{7-[3-(4-Methanesulfonyl-piperazin-1-yl)-propoxy]-quinazolin-4-yl}-piperidine-1-carboxylic acid (4-pyrrolidin-1-yl-phenyl)-amide]	11 nM
CN(C)C(=O)N1CCN(CCCOc2ccc3c(C4CCN(C(=O)Nc5ccc(N6CCCC6)cc5)CC4)ncnc3c2)CC1 [Example 165, 4-(3-{4-[1-(4-Pyrrolidin-1-yl-phenylcarbamoyl)-piperidin-4-yl]-quinazolin-7-yloxy}-propyl)-piperazine-1-carboxylic acid dimethylamide]	4 nM
CC(=O)N1CCN(c2ccc3c(C4CCN(C(=O)Nc5ccc(N6CCCC6)cc5)CC4)ncnc3c2)CC1 [Example 166, 4-[7-(4-Acetyl-piperazin-1-yl)-quinazolin-4-yl]-piperidine-1-carboxylic acid (4-pyrrolidin-1-yl-phenyl)-amide]	16 nM
CS(=O)(=O)N1CCN(c2ccc3c(C4CCN(C(=O)Nc5ccc(N6CCCC6)cc5)CC4)ncnc3c2)CC1 [Example 167, 4-[7-(4-Methanesulfonyl-piperazin-1-yl)-quinazolin-4-yl]-piperidine-1-carboxylic acid (4-pyrrolidin-1-yl-phenyl)-amide]	3 nM
O=C(Nc1ccc(N2CCCC2)cc1)N1CCC(c2ncnc3cc(OCCO)ccc23)CC1 [Example 169, 4-[7-(2-Hydroxy-ethoxy)-quinazolin-4-yl]-piperidine-1-carboxylic acid (4-pyrrolidin-1-yl-phenyl)-amide]	2 nM
CC(=O)N1CC(Oc2ccc3c(C4CCN(C(=O)Nc5ccc(N6CCCC6)cc5)CC4)ncnc3c2)C1 [Example 170, 4-[7-(1-Acetyl-azetidin-3-yloxy)-quinazolin-4-yl]-piperidine-1-carboxylic acid (4-pyrrolidin-1-yl-phenyl)-amide]	4 nM
CS(=O)(=O)N1CC(Oc2ccc3c(C4CCN(C(=O)Nc5ccc(N6CCCC6)cc5)CC4)ncnc3c2)C1 [Example 171, 4-[7-(1-Methanesulfonyl-azetidin-3-yloxy)-quinazolin-4-yl]-piperidine-1-carboxylic acid (4-pyrrolidin-1-yl-phenyl)-amide]	10 nM
O=C(COc1ccc2c(C3CCN(C(=O)Nc4ccc(N5CCCC5)cc4)CC3)ncnc2c1)N1CCOCC1 [Example 172, 4-[7-(2-Morpholin-4-yl-2-oxo-ethoxy)-quinazolin-4-yl]-piperidine-1-carboxylic acid (4-pyrrolidin-1-yl-phenyl)-amide]	149 nM
O=C(Nc1ccc(N2CCCC2)cc1)N1CCC(c2ncnc3cc(N4CCC4)ccc23)CC1 [Example 173, 4-(7-Azetidin-1-yl-quinazolin-4-yl)-piperidine-1-carboxylic acid (4-pyrrolidin-1-yl-phenyl)-amide]	2 nM
O=C(Nc1ccc(N2CCCC2)cc1)N1CCC(c2ncnc3cc(Oc4cccnc4)ccc23)CC1 [Example 174, 4-[7-(Pyridin-3-yloxy)-quinazolin-4-yl]-piperidine-1-carboxylic acid (4-pyrrolidin-1-yl-phenyl)-amide]	130 nM
O=C(Nc1ccc(N2CCCC2)cc1)N1CCC(c2ncnc3cc(NCCO)ccc23)CC1 [Example 175, 4-[7-(2-Hydroxy-ethylamino)-quinazolin-4-yl]-piperidine-1-carboxylic acid (4-pyrrolidin-1-yl-phenyl)-amide]	6 nM
O=C(Nc1ccc(N2CCCC2)cc1)N1CCC(c2ncnc3cc(N4CCOC4=O)ccc23)CC1 [Example 176, 4-[7-(2-Oxo-oxazolidin-3-yl)-quinazolin-4-yl]-piperidine-1-carboxylic acid (4-pyrrolidin-1-yl-phenyl)-amide]	7 nM
